Calls of active or inactive are those of the source. The calls are words filed in the database; no cut-off is given here.

Series [1] concerns the target Cholinesterase (Equus caballus) (UniProt P81908). As to the kind of experiment: Inhibition of equine serum BuChE using butyrylthiocholine iodide as substrate at 50 uM incubated for 15 mins followed by substrate addition by Ellman's method. On the technique in general: Ellman's reagent forms a yellow product with free thiols.
Series [2] can be described thus: cells. The note with it: Homo sapiens, SH-SY5Y, 24 h.
Description: Neuroprotective activity against oligomycine/rotenone-induced oxidative stress-mediated cell death in human SH-SY5Y cells assessed as increase in cell viability after 24 hrs by XTT assay
Series [3] is described as follows: Neurotoxicity in human SH-SY5Y cells assessed as decrease in cell viability at 1 uM after 24 hrs by XTT assay. In kind it is toxicity, cell-based. A general note: Tetrazolium dyes change colour on reduction, which living cells bring about.
Series [4] addresses T1, Acetylcholinesterase (Electrophorus electricus, UniProt O42275).
Description: Inhibition of Electrophorus electricus AChE using acetylthiocholine iodide as substrate incubated for 15 mins followed by substrate addition by Ellman's method
A short description of series [5]: cells. The following applies: Homo sapiens, SH-SY5Y, 24 h. This is another data set of the same source.
Description: Neuroprotective activity against okadaic acid-induced tau phosphorylation-mediated cell death in human SH-SY5Y cells assessed as increase in cell viability after 24 hrs by XTT assay
Series [6] in a line: Neurotoxicity in human SH-SY5Y cells assessed as decrease in cell viability at 25 to 50 uM after 24 hrs by XTT assay. The series is classed as toxicity, cell-based.
For series [7], the system named is HepG2. Nature of the series: Hepatotoxicity in human HepG2 cells assessed as decrease in cell viability at 1 to 100 uM after 24 hrs by XTT assay. In kind it is toxicity, cell-based. The following applies: hepg2, 24 h.
The target of series [8] is Acetylcholinesterase (Electrophorus electricus) (UniProt O42275). Nature of the series: Competitive inhibition of Electrophorus electricus AChE using acetylthiocholine iodide as substrate at 0.001 to 10 uM incubated for 15 mins followed by substrate addition by Lineweaver-Burk reciprocal plot analysis.
Chain of Acetylcholinesterase (Electrophorus electricus) (O42275 24-633 limits assumed): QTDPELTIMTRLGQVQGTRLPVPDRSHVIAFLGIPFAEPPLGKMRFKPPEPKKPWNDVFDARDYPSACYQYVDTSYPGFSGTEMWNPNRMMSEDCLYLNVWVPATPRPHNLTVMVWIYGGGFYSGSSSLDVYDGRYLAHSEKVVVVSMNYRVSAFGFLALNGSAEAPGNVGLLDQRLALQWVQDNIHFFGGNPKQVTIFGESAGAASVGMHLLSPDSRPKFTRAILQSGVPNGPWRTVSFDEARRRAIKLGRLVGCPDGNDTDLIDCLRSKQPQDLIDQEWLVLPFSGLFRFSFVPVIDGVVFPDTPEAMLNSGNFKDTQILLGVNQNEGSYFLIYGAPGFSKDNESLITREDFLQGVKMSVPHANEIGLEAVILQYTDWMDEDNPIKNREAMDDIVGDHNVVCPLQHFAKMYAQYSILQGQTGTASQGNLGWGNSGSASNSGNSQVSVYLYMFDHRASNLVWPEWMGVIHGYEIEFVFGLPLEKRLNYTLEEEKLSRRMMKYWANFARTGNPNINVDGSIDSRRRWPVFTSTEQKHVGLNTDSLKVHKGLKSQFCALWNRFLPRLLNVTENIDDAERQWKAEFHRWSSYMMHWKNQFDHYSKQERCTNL
Series [9] addresses T1, Acetylcholinesterase. The source holds these as a separate data set.
Description: Inhibition of Electrophorus electricus AChE using acetylthiocholine iodide as substrate by Dixon plot analysis
The target of a further series is Cholinesterase (Equus caballus, UniProt P81908).
Chain of Cholinesterase (P81908 whole entry): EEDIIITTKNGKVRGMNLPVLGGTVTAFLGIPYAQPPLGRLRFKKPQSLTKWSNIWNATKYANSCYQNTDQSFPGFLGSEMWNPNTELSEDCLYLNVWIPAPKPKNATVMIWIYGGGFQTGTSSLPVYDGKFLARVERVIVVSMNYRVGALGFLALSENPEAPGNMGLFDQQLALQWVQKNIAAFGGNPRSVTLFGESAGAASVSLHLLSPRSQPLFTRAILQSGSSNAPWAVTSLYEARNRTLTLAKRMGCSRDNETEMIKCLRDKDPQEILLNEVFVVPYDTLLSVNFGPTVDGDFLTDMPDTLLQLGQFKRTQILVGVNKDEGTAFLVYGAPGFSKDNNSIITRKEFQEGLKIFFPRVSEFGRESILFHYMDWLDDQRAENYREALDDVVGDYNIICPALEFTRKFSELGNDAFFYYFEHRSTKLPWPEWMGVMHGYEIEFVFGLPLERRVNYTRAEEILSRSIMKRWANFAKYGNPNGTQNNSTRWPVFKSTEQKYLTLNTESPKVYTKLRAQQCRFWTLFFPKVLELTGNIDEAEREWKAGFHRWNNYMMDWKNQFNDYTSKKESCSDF
The nature of series [10]: cells. The following applies: Rattus norvegicus, Sprague-Dawley, Cortical neurone, 3 h.
Description: Neuroprotective activity against NMDA-induced excitotoxicity in Sprague-Dawley rat primary cortical neurons assessed as increase in cell viability after 3 hrs by MTT assay
The subject of series [11] is HepG2. As to the kind of experiment: Hepatoprotective activity in human HepG2 cells at 1 to 25 uM after 24 hrs by XTT assay. In kind it is functional, cell-based.
Series [12] deals with SH-SY5Y. As to the kind of experiment: Neuroprotective activity against oligomycine/rotenone-induced oxidative stress-mediated cell death in human SH-SY5Y cells assessed as increase in cell viability at 10 uM after 24 hrs by microscopic analysis. In kind it is functional, cell-based.
Series [13] has as its system SH-SY5Y. Nature of the series: Neuroprotective activity against okadaic acid-induced tau phosphorylation-mediated cell death in human SH-SY5Y cells assessed as increase in cell viability at 10 uM after 24 hrs by microscopic analysis. In kind it is functional, cell-based.
In series [14] the test system is HepG2. Nature of the series: Hepatotoxicity in human HepG2 cells assessed as decrease in cell viability at 100 uM after 24 hrs by XTT assay. In kind it is toxicity, cell-based. The following applies: hepg2, 24 h.

Chain of Cholinesterase (Equus caballus) (P81908 whole entry): as above
T1 sequence (O42275 whole entry): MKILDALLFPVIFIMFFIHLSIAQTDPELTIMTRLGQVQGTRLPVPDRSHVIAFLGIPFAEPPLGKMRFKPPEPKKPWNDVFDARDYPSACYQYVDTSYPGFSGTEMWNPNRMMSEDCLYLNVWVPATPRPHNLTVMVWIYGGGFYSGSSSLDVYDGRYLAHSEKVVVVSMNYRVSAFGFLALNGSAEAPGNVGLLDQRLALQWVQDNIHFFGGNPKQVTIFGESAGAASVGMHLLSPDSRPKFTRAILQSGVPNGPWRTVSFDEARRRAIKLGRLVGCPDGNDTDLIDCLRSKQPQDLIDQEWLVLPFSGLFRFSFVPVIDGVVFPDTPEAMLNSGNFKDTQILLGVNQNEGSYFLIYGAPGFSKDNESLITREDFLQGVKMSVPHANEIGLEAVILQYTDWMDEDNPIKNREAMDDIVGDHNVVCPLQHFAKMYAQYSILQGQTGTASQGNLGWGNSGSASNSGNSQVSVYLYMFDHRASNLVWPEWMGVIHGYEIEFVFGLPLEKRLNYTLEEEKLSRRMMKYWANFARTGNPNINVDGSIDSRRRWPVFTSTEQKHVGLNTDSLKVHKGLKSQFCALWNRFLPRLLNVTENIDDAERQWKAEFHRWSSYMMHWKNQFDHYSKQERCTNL

One may read the EC50 as the midpoint of the concentration-response curve. Read a low EC50 as greater potency. In general, IC50 refers to the concentration needed to halve the response being measured. Read a low IC50 as greater potency. The compound `CC(C)=CCC/C(C)=C/CC/C(C)=C/Cc1cc(O)cc(Sc2ccccc2C(=O)O)c1O` returned an Imax in [1] of 8.4%. The EC50 amounted to 13.6 µM in the series “cells [2]” and 0.516 µM in the series “cells [5]”. In addition, the Activity entry (in series [3]; in [6]; with HepG2 [7]) was “Non-Toxic” throughout. At Acetylcholinesterase [4], this compound displayed an IC50 of 18.1 µM.
Broadly, the Ki is the dissociation constant of the complex between target and ligand, obtained from inhibition or displacement. `CC(C)=CCc1cc(O)cc(Sc2ccccc2C(=O)O)c1O` gave an Imax in series [1] of 13.1%. Moreover, the concentration giving a half-maximal response (EC50) in “cells [2]” is 4.65 µM; in the series “cells [5]”, 0.54 µM. Further, the inhibition result in series [8] was “Active”. Also, the Activity entry (in series [3]; in series [6]; in the series with HepG2 [7]) was “Non-Toxic” in each case. The same compound yielded an IC50 at Acetylcholinesterase [4] of 7.88 µM. On Acetylcholinesterase [9], this compound displayed a Ki of 221 pM.
For the compound `CC(C)=CCC/C(C)=C/Cc1cc(O)cc(Sc2ccccc2C(=O)O)c1O`, the Imax in series [1] was 17.8%. In addition, the EC50 in “cells [2]” came out at 8.17 µM; in “cells [5]”, 0.22 µM. The Activity entry (in series [3]; in [6]; with HepG2 [7]) was “Non-Toxic” in each case. On Acetylcholinesterase [4], this compound displayed a concentration for half-maximal inhibition (IC50) of 13.1 µM.
Regarding `CC1=CCC[C@H]2[C@](C)(Cc3cc(O)ccc3O)[C@@H](C)CC[C@]12C` [AVAROL], the Activity entry in series [3] and in series [6] was “Non-Toxic” in each case. At Acetylcholinesterase [4], this compound came in with an IC50 of 286 µM.
In the case of `CC1=CCC[C@H]2[C@](C)(Cc3cc(O)cc(Sc4ccccc4C(=O)O)c3O)[C@@H](C)CC[C@]12C`, the Imax in series [1] stood at 77.5%. Further, in series [8], the inhibition result is “Active”. Also, the IC50 against Acetylcholinesterase [4] and at Cholinesterase was 15.1 µM each time. Moreover, the Ki at Acetylcholinesterase [9] was found to be 58.5 pM.
With `COc1ccc2c3c1O[C@H]1C[C@@H](O)C=C[C@@]31CCN(C)C2` [GALANTAMINE], the figures for the EC50 in the series “cells [2]”, in “cells [5]” and in the series “cells [10]” were 2.81 µM, 1.94 µM and 1.48 µM, respectively. Besides, the Activity result in series [3] and in series [6] was “Non-Toxic” in each case.
In [1], `CC(C)=CCC/C(C)=C/CC/C(C)=C/CC/C(C)=C/Cc1cc(O)cc(Sc2ccccc2C(=O)O)c1O` gave an Imax of 60.5%. In addition, the results for the EC50 in “cells [2]” and in the series “cells [5]” were 0.52 µM and 0.15 µM, respectively. The inhibition result in series [8] is “Active”. Besides, the result with HepG2 [11], in the series on SH-SY5Y [12] and in the series with SH-SY5Y [13] was Active. Further, the Activity entry (in series [3]; in series [6]; in the series with HepG2 [7]) was “Non-Toxic” throughout. Further, the half-maximal inhibitory concentration (IC50) against Acetylcholinesterase [4] came out at 6.77 µM; against Cholinesterase, 19.7 µM. At Acetylcholinesterase [9], the inhibitory constant (Ki) came out at 0.59 pM.
`C/C(=C\Cc1cc(O)cc(Sc2ccccc2C(=O)O)c1O)CCCC(C)CCCC(C)CCCC(C)C` (configuration not stated) displayed an Imax in series [1] of 94.3 to 95%. The 50% effective concentration (EC50) amounted to 1.1 µM in “cells [2]” and 1.21 µM in the series “cells [5]”. The results for the Activity entry (in series [3]; in the series with HepG2 [14]; in [6]) were “Non-Toxic”, “Toxic” and “Non-Toxic”, respectively. The results for the IC50 against Acetylcholinesterase [4] and against Cholinesterase were 13.8 µM and 12.8 µM, respectively.

The record behind these values is ChEMBL document CHEMBL3868581, “Avarol derivatives as competitive AChE inhibitors, non hepatotoxic and neuroprotective agents for Alzheimer's disease” (Eur J Med Chem, 2016).
